From US20070244086A1, “3-Phenyl-Pyrazole Derivatives as Modulators of the 5-Ht2A Serotonin Receptor Useful for the Treatment of Disorders Related Thereto” (Arena Pharmaceuticals, Inc., priority 2004, published 2007) come the findings set out here.

In the assay the target is T1, human 5-HT2A receptor (Homo sapiens, UniProt P28223).
T1 construct: expressed in transfected cells; host or cells: COS7 cells, transient transfection, pCMV vector; crude membranes
T1 sequence (P28223 whole entry): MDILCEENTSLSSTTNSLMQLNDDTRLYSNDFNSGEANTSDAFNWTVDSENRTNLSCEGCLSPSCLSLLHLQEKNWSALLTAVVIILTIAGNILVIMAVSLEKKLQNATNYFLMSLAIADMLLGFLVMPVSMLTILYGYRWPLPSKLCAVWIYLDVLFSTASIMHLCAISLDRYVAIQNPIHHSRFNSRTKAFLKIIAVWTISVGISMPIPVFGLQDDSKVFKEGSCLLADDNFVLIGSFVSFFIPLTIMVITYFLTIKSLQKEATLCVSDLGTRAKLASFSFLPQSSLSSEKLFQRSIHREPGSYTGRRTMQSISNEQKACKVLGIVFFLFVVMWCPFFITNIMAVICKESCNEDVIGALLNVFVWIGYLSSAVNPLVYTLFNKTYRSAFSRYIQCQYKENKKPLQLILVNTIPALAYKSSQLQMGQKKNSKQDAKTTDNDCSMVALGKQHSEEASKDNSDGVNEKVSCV
Briefly: [125I]DOI radioligand binding assay. To be noted: 0.5 nM [125I]DOI, membranes of COS7 cells transfected with human 5-HT2A receptor. As to the method:
Crude membrane pellets were stored at −80° C. until used for radioligand binding assays.
For `CC(C)COC(=O)Nc1ccc(OCCN2CCCC2)c(-c2c(Br)cnn2C)c1` [Compound 23, [3-(4-Bromo-2-methyl-2H-pyrazol-3-yl)-4-(2-pyrrolidin-1-yl-ethoxy)-phenyl]-carbamic acid isobutyl ester], the 50% inhibitory concentration (IC50) is 0.0011 µM.
The result for `Cn1nccc1-c1cc(NC(=O)NCc2ccc(Cl)cc2)ccc1OCCN1CCCCC1` [Compound 45, 1-(4-Chloro-benzyl)-3-[3-(2-methyl-2H-pyrazol-3-yl)-4-(2-piperidin-1-yl-ethoxy)-phenyl]-urea] reads 0.0102 µM.
Compound `Cn1nccc1-c1cc(NC(=O)Cc2ccc(F)cc2)ccc1OCCN1CCOCC1` [Compound 160, 2-(4-Fluoro-phenyl)-N-[3-(2-methyl-2H-pyrazol-3-yl)-4-(2-morpholin-4-yl-ethoxy)-phenyl]-acetamide] came in with an IC50 of 0.0137 µM.
